Measured values from US20060100431A1, “Biologically active compounds” (Amura Therapeutics Limited, priority 2002, published 2006).

How the values were obtained:
Type in all cases: biochemical
Wild-type cruzipain = Wild-type cruzipain (Trypanosoma cruzi, UniProt P25779); assay: Trypanosoma cruzi cruzipain peptidase activity assay (Ki); conditions: read-out: Ki, inhibitors of cruzain and cruzipains
Summary of the method: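 Native cruzipain from T. cruzi Dm28 epimastigotes, 2.5 nM, in 100 mM sodium phosphate pH 6.75 with 1 mM EDTA and 10 mM L-cysteine, 25 °C, DMSO <1%. Rates taken from continuous fluorogenic substrate read; Ki by regression assuming reversible pure-competitive inhibition.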

human cathepsin B = target: T1, human cathepsin B (Homo sapiens, UniProt P07858); assay: Cathepsin B peptidase activity assay (Ki); conditions: read-out: Ki, inhibitors of cathepsin B
T1 construct: purchased CN Biosciences
Summary of the method: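 Buffer: 10 mM bis-tris-propane pH 6.5, 1 mM EDTA, 5 mM 2-mercaptoethanol, 1 mM CaCl2; DMSO <1%. Ki assumed reversible, pure-competitive, from Ki^app=Ki(1+[So]/KM^app) by non-linear regression.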

human cathepsin L = target: T2, human cathepsin L (Homo sapiens, UniProt P07711); assay: Cathepsin L peptidase activity assay (Ki); conditions: read-out: Ki, inhibitors of cathepsin L
T2 construct: purchased CN Biosciences
Summary of the method: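 Human cathepsin L at 1 nM with Ac-Phe-Arg-AMC at its KM^app (~20 μM) in 10 mM bis-tris-propane pH 6.5, 1 mM EDTA, 5 mM 2-mercaptoethanol, 1 mM CaCl2, DMSO <1%, 25±1° C. Reaction enzyme-initiated; AMC fluorescence (ex 365/em 450 nm) monitored over time.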

CPB2.8ΔCTE = target: T3, CPB2.8ΔCTE (Leishmania mexicana, UniProt P36400); assay: Leishmania mexicana cysteine protease B (CPB) peptidase activity assay (Ki); conditions: Ki, inhibitors of Leismania mexicana CPB protease
T3 construct: Wild-type recombinant CPB without the C-terminal extention (i.e. CPB2.8ΔCTE); Dr. Jeremy Mottram (Wellcome Centre for Molecular Parasitology, University of Glasgow)
Summary of the method: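 Recombinant CPB2.8ΔCTE (0.25 nM) was assayed in 100 mM sodium acetate pH 5.5 with 1 mM EDTA, 200 mM NaCl and 10 mM DTT at 25 °C, DMSO <1%, enzyme added to start. Rates were taken from continuous fluorescence slopes; apparent Ki was fitted assuming reversible, pure-competitive inhibition.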

Measured: Ki

T2 sequence (P07711 114-333): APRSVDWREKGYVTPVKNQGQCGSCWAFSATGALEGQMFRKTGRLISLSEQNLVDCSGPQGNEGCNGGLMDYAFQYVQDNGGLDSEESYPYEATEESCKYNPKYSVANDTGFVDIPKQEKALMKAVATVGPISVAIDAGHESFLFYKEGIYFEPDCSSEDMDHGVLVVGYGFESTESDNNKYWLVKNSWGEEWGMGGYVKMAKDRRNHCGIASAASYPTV
Wild-type cruzipain, sequence (P25779 whole entry): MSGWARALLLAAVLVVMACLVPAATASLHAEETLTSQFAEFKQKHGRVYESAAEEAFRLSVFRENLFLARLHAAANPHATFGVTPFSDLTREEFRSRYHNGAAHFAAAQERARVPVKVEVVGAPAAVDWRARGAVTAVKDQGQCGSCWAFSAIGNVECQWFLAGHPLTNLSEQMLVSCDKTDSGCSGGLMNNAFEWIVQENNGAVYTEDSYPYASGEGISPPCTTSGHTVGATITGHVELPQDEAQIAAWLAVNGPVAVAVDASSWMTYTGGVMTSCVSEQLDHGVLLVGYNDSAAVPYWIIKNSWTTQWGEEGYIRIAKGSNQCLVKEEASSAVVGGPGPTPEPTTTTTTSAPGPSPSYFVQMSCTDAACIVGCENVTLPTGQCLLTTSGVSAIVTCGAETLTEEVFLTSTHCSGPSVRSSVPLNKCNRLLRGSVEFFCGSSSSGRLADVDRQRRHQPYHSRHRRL
T3 sequence (P36400 126-343, stated change not applied): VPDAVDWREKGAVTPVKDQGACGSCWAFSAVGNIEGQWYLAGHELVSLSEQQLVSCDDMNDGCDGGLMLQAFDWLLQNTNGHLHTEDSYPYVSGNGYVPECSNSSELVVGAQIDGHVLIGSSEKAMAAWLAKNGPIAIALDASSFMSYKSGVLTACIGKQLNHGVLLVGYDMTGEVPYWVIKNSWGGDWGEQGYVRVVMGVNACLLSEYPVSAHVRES

CC(C)C[C@H](NC(=O)c1cc2ccccc2s1)C(=O)N1CC[C@@H]2[C@H]1C(=O)CN2C(=O)c1cccnc1 [Example 15, (3aR,6aS)-Benzo[b]thiophene-2-carboxylic acid {(1S)-3-methyl-1-[6-oxo-4-(pyridine-3-carbonyl)-hexahydro-pyrrolo[3,2-b]pyrrole-1-carbonyl]-butyl}-amide]
< 5 µM: Wild-type cruzipain | human cathepsin B | human cathepsin L

CC(C)C[C@H](NC(=O)c1ccc(C(C)(C)C)cc1)C(=O)N1CC[C@@H]2[C@H]1C(=O)CN2C(=O)c1ccc(-c2ccccc2)s1 [Example 28, (3aR,6aS)-4-tert-Butyl-N-{(1S)-3-methyl-1-[6-oxo-4-(5-phenyl-thiophene-2-carbonyl)-hexahydro-pyrrolo[3,2-b]pyrrole-1-carbonyl]-butyl}-benzamide]
< 5 µM: all assays above

CC(C)C[C@H](NC(=O)c1ccc(C(C)(C)C)cc1)C(=O)N1CC[C@@H]2[C@H]1C(=O)CN2C(=O)c1csc2ccccc12 [Example 31]
< 5 µM: all assays above

CC(C)C[C@H](NC(=O)c1ccc(N(C)C)cc1)C(=O)N1CC[C@@H]2[C@H]1C(=O)CN2C(=O)c1cccc(Cl)c1 [Example 73, (3aR,6aS)-N-{(1S)-1-[4-(3-Chloro-benzoyl)-6-oxo-hexahydro-pyrrolo[3,2-b]pyrrole-1-carbonyl]-3-methyl-butyl}-4-dimethylamino-benzamide]
< 5 µM: all assays above

CC(C)C[C@H](NC(=O)c1ccc(N(C)C)cc1)C(=O)N1CC[C@@H]2[C@H]1C(=O)CN2C(=O)C1CCCCC1 [Example 104, (3aR,6aS)-N-[(1S)-1-(4-Cyclohexanecarbonyl-6-oxo-hexahydro-pyrrolo[3,2-b]pyrrole-1-carbonyl)-3-methyl-butyl]-4-dimethylamino-benzamide]
< 5 µM: all assays above

O=C(N[C@@H](CC1CCCCC1)C(=O)N1CC[C@@H]2[C@H]1C(=O)CN2C(=O)c1ccccc1)c1csc2ccccc12 [Example 254, (3aR,6aS)-Benzo[b]thiophene-3-carboxylic acid [(1S)-2-(4-benzoyl-6-oxo-hexahydro-pyrrolo[3,2-b]pyrrole-1-yl)-1-cyclohexylmethyl-2-oxo-ethyl]-amide]
< 5 µM: Wild-type cruzipain | human cathepsin B | human cathepsin L

O=C(N[C@@H](CC1CCCCC1)C(=O)N1CC[C@@H]2[C@H]1C(=O)CN2C(=O)c1cccc2ccccc12)c1ccsc1 [Example 255, (3aR,6aS)-Thiophene-3-carboxylic acid {(1S)-1-cyclohexylmethyl-2-[4-(naphthalene-1-carbonyl)-6-oxo-hexahydro-pyrrolo[3,2-b]pyrrol-1-yl]-2-oxo-ethyl}-amide]
< 5 µM: Wild-type cruzipain | human cathepsin B | human cathepsin L

CS(=O)(=O)c1ccccc1C(=O)N1CC(=O)[C@@H]2[C@H]1CCN2C(=O)[C@H](CSCc1ccccc1)NC(=O)c1ccsc1 [Example 261, (3aR,6aS)-Thiophene-3-carboxylic acid {(1R)-1-benzylsulfanylmethyl-2-[4-(2-methanesulfonyl-benzoyl)-6-oxo-hexahydro-pyrrolo[3,2-b]pyrrol-1-yl]-2-oxo-ethyl}-amide]
< 5 µM: Wild-type cruzipain | human cathepsin B | human cathepsin L

CS(=O)(=O)c1cccc(C(=O)N2CC(=O)[C@@H]3[C@H]2CCN3C(=O)[C@H](CSCc2ccccc2)NC(=O)c2ccsc2)c1 [Example 262, (3aR,6aS)-Thiophene-3-carboxylic acid {(1R)-1-benzylsulfanylmethyl-2-(4-(3-methanesulfonyl-benzoyl)-6-oxo-hexahydro-pyrrolo[3,2-b]pyrrol-1-yl)-2-oxo-ethyl}-amide]
< 5 µM: human cathepsin B | human cathepsin L

O=C(N[C@@H](CSCc1ccccc1)C(=O)N1CC[C@@H]2[C@H]1C(=O)CN2C(=O)c1ccccc1)C(c1ccccc1)c1ccccc1 [Example 269, (3aR,6aS)-N-[(1R)-2-(4-Benzoyl-6-oxo-hexahydro-pyrrolo[3,2-b]pyrrol-1-yl)-1-benzylsulfanylmethyl-2-oxo-ethyl]-2,2-diphenyl-acetamide]
< 5 µM: human cathepsin B | human cathepsin L

CC(C)C[C@H](NC(=O)C(c1ccccc1)c1ccccc1)C(=O)N1CC[C@@H]2[C@H]1C(=O)CN2C(=O)c1csc2ccccc12 [Example 271, (3aR,6aS)-N-{(1S)-1-[4-(Benzo[b]thiophene-3-carbonyl)-6-oxo-hexahydro-pyrrolo[3,2-b]pyrrole-1-carbonyl]-3-methyl-butyl}-2,2-diphenyl-acetamide]
< 5 µM: all assays above

O=C(N[C@@H](CSCc1ccccc1)C(=O)N1CC[C@@H]2[C@H]1C(=O)CN2C(=O)C1CCCCC1)c1ccsc1 [Example 273, (3aR,6aS)-Thiophene-3-carboxylic acid [(1R)-1-benzylsulfanylmethyl-2-(4-cyclohexanecarbonyl-6-oxo-hexahydro-pyrrolo[3,2-b]pyrrol-1-yl)-2-oxo-ethyl]-amide]
< 5 µM: human cathepsin B | human cathepsin L

Cc1cccc(C(=O)N2CC(=O)[C@@H]3[C@H]2CCN3C(=O)[C@H](CSCc2ccccc2)NC(=O)c2ccsc2)c1 [Example 275, (3aR,6aS)-Thiophene-3-carboxylic acid {(1R)-1-benzylsulfanylmethyl-2-[4-(3-methyl-benzoyl)-6-oxo-hexahydro-pyrrolo[3,2-b]pyrrol-1-yl]-2-oxo-ethyl}-amide]
< 5 µM: human cathepsin B | human cathepsin L

O=C(N[C@@H](CSCc1ccccc1)C(=O)N1CC[C@@H]2[C@H]1C(=O)CN2C(=O)c1ccccc1)c1ccc2ncsc2c1 [Example 281, (3aR,6aS)-Benzothiazole-6-carboxylic acid [(1R)-2-(4-benzoyl-6-oxo-hexahydro-pyrrolo[3,2-b]pyrrole-1-yl)-1-benzylsulfanylmethyl-2-oxo-ethyl]-amide]
< 5 µM: human cathepsin B | human cathepsin L

O=C(N[C@@H](CC1CCCCC1)C(=O)N1CC[C@@H]2[C@H]1C(=O)CN2C(=O)c1ccccc1)c1ccc2ncsc2c1 [Example 286, (3aR,6aS)-Benzothiazole-6-carboxylic acid [(1S)-2-(4-benzoyl-6-oxo-hexahydro-pyrrolo[3,2-b]pyrrole-1-yl)-1-cyclohexylmethyl-2-oxo-ethyl]-amide]
< 5 µM: all assays above

O=C(N[C@@H](CC1CCCCC1)C(=O)N1CC[C@@H]2[C@H]1C(=O)CN2C(=O)c1ccccc1)c1ccccc1 [Example 290, (3aR,6aS)-N-[(1S)-2-(4-Benzoyl-6-oxo-hexahydro-pyrrolo[3,2-b]pyrrol-1-yl)-1-cyclohexylmethyl-2-oxo-ethyl]-benzamide]
< 5 µM: Wild-type cruzipain | human cathepsin B | human cathepsin L

Cc1cccc(C(=O)N2CC(=O)[C@@H]3[C@H]2CCN3C(=O)[C@H](CC2CCCCC2)NC(=O)c2ccsc2)c1 [Example 292, (3aR,6aS)-Thiophene-3-carboxylic acid {(1S)-1-cyclohexylmethyl-2-[4-(3-methyl-benzoyl)-6-oxo-hexahydro-pyrrolo[3,2-b]pyrrol-1-yl]-2-oxo-ethyl}-amide]
< 5 µM: Wild-type cruzipain | human cathepsin B | human cathepsin L
